Source: ChEMBL document CHEMBL5055633, “Amphipathic Barbiturates as Mimics of Antimicrobial Peptides and the Marine Natural Products Eusynstyelamides with Activity against Multi-resistant Clinical Isolates” (J Med Chem, 2021)

Experiments:
[1] = tested on: Enterococcus faecium; assay: Antimicrobial activity against extended spectrum-lactamase-carbapenemas producing Enterococcus faecium strain 50901530 assessed as reduction in bacterial growth incubated for 48 hrs by microdilution method; type: functional
[2] = tested on: Escherichia coli; assay: Antimicrobial activity against New Delhi metallo-beta lactamase-1 producing Escherichia coli 50739822 assessed as reduction in bacterial growth incubated for 48 hrs by microdilution method; type: functional
[3] = tested on: Acinetobacter baumannii; assay: Antimicrobial activity against oxacillinase-24 producing Acinetobacter baumannii K55-13 assessed as reduction in bacterial growth incubated for 48 hrs by microdilution method; type: functional
[4] = tested on: Pseudomonas aeruginosa; assay: Antimicrobial activity against verona integron-encoded metallo-beta-lactamase-2 producing Pseudomonas aeruginosa K34-7 assessed as reduction in bacterial growth incubated for 48 hrs by microdilution method; type: functional
[5] = tested on: Escherichia coli; assay: Antimicrobial activity against New Delhi metallo-beta lactamase-1 producing Escherichia coli 50676002 assessed as reduction in bacterial growth incubated for 48 hrs by microdilution method; type: functional
[6] = Antimicrobial activity against New Delhi metallo-beta lactamase-1 Klebsiella pneumoniae K66-45 assessed as reduction in bacterial growth incubated for 48 hrs by microdilution method; type: functional
[7] = tested on: Acinetobacter baumannii; assay: Antimicrobial activity against oxacillinase-23 producing Acinetobacter baumannii K63-58 assessed as reduction in bacterial growth incubated for 48 hrs by microdilution method; type: functional
[8] = tested on: Staphylococcus aureus; assay: Antimicrobial activity against Staphylococcus aureus ATCC 9144 assessed as reduction in bacterial growth incubated for 48 hrs by microdilution susceptibility test; type: functional
[9] = tested on: Escherichia coli; assay: Antimicrobial activity against oxacillinase-producing Escherichia coli 50579417 assessed as reduction in bacterial growth incubated for 48 hrs by microdilution method; type: functional
[10] = tested on: Enterococcus faecium; assay: Antimicrobial activity against extended spectrum-lactamase-carbapenemas producing Enterococcus faecium strain K36-18 assessed as reduction in bacterial growth incubated for 48 hrs by microdilution method; type: functional
[11] = tested on: Enterococcus faecium; assay: Antimicrobial activity against extended spectrum-lactamase-carbapenemas producing Enterococcus faecium strain TUH.50-22 assessed as reduction in bacterial growth incubated for 48 hrs by microdilution method; type: functional
[12] = tested on: Staphylococcus aureus; assay: Antimicrobial activity against extended spectrum-lactamase-carbapenemas producing Staphylococcus aureus strain IHT 99040 assessed as reduction in bacterial growth incubated for 48 hrs by microdilution method; type: functional
[13] = tested on: Escherichia coli; assay: Antimicrobial activity against Escherichia coli ATCC 25922 assessed as reduction in bacterial growth incubated for 48 hrs by microdilution susceptibility test; type: functional
[14] = tested on: HepG2; assay: Cytotoxicity against human HepG2 cells assessed as reduction in cell viability incubated for 24 hrs by colorimetric tetrazolium assay; type: functional, cell-based; settings: HepG2, 24 h
[15] = tested on: Acinetobacter baumannii; assay: Antimicrobial activity against oxacillinase-23 producing Acinetobacter baumannii K47-42 assessed as reduction in bacterial growth incubated for 48 hrs by microdilution method; type: functional
[16] = tested on: Pseudomonas aeruginosa; assay: Antimicrobial activity against New Delhi metallo-beta lactamase-1 producing Pseudomonas aeruginosa 50692172 assessed as reduction in bacterial growth incubated for 48 hrs by microdilution method; type: functional
[17] = tested on: Staphylococcus aureus; assay: Antimicrobial activity against extended spectrum-lactamase-carbapenemas producing Staphylococcus aureus NCTC 10442 assessed as reduction in bacterial growth incubated for 48 hrs by microdilution method; type: functional
[18] = tested on: Acinetobacter baumannii; assay: Antimicrobial activity against oxacillinase-23 producing Acinetobacter baumannii K44-35 assessed as reduction in bacterial growth incubated for 48 hrs by microdilution method; type: functional
[19] = tested on: Escherichia coli; assay: Antimicrobial activity against verona integron-encoded metallo-beta-lactamase-29-producing Escherichia coli 50639799 assessed as reduction in bacterial growth incubated for 48 hrs by microdilution method; type: functional
[20] = tested on: Acinetobacter baumannii; assay: Antimicrobial activity against oxacillinase-58 producing Acinetobacter baumannii K12-21 assessed as reduction in bacterial growth incubated for 48 hrs by microdilution method; type: functional
[21] = tested on: Pseudomonas aeruginosa; assay: Antimicrobial activity against Pseudomonas aeruginosa PAO1 assessed as reduction in bacterial growth incubated for 48 hrs by microdilution susceptibility test; type: functional
[22] = Antimicrobial activity against verona integron-encoded metallo-beta-lactamase -1 producing Klebsiella pneumoniae 50667959 assessed as reduction in bacterial growth incubated for 48 hrs by microdilution method; type: functional
[23] = tested on: Enterococcus faecium; assay: Antimicrobial activity against extended spectrum-lactamase-carbapenemas producing Enterococcus faecium strain 50758899 assessed as reduction in bacterial growth incubated for 48 hrs by microdilution method; type: functional
[24] = tested on: Escherichia coli; assay: Antimicrobial activity against imipenem-type carbapenemase-26 producing Escherichia coli 50857972 assessed as reduction in bacterial growth incubated for 48 hrs by microdilution method; type: functional
[25] = tested on: Pseudomonas aeruginosa; assay: Antimicrobial activity against imipenem-type carbapenemase-14 producing Pseudomonas aeruginosa K44-24 assessed as reduction in bacterial growth incubated for 48 hrs by microdilution method; type: functional
[26] = tested on: MRC5; assay: Cytotoxicity against human MRC5 cells assessed as reduction in cell viability incubated for 24 hrs by colorimetric tetrazolium assay; type: functional, cell-based; settings: MRC5, 24 h
[27] = tested on: Pseudomonas aeruginosa; assay: Antimicrobial activity against verona integron-encoded metallo-beta-lactamase-4 producing Pseudomonas aeruginosa K34-73 assessed as reduction in bacterial growth incubated for 48 hrs by microdilution method; type: functional
[28] = tested on: Pseudomonas aeruginosa; assay: Antimicrobial activity against verona integron-encoded metallo-beta-lactamase producing Pseudomonas aeruginosa 50692520 assessed as reduction in bacterial growth incubated for 48 hrs by microdilution method; type: functional
[29] = Hemolytic activity in human erythrocytes incubated for 1 hr by microplate reader; type: functional, cell-based; settings: erythrocyte
[30] = tested on: Staphylococcus aureus; assay: Antimicrobial activity against extended spectrum-lactamase-carbapenemas producing Staphylococcus aureus strain 85/2082 assessed as reduction in bacterial growth incubated for 48 hrs by microdilution method; type: functional
[31] = Antimicrobial activity against oxacillinase-245 producing Klebsiella pneumoniae 50625602 assessed as reduction in bacterial growth incubated for 48 hrs by microdilution method; type: functional
[32] = tested on: Staphylococcus aureus; assay: Antimicrobial activity against extended spectrum-lactamase-carbapenemas producing Staphylococcus aureus N315 assessed as reduction in bacterial growth incubated for 48 hrs by microdilution method; type: functional
[33] = Antimicrobial activity against carbapenemase producing Klebsiella pneumoniae K47-25 assessed as reduction in bacterial growth incubated for 48 hrs by microdilution method; type: functional
[34] = Antimicrobial activity against New Delhi metallo-beta lactamase-1 and oxacillinase -181 producing Klebsiella pneumoniae 50531633 assessed as reduction in bacterial growth incubated for 48 hrs by microdilution method; type: functional
[35] = tested on: Staphylococcus aureus; assay: Antimicrobial activity against extended spectrum-lactamase-carbapenemas producing Staphylococcus aureus strain WIS assessed as reduction in bacterial growth incubated for 48 hrs by microdilution method; type: functional
[36] = tested on: Enterococcus faecium; assay: Antimicrobial activity against extended spectrum-lactamase-carbapenemas producing Enterococcus faecium strain 50673722 assessed as reduction in bacterial growth incubated for 48 hrs by microdilution method; type: functional
[37] = tested on: Corynebacterium glutamicum; assay: Antimicrobial activity against Corynebacterium glutamicum ATCC 13032 assessed as reduction in bacterial growth incubated for 48 hrs by microdilution susceptibility test; type: functional

SMILES	MIC [1] [µg/mL]	MIC [2] [µg/mL]	MIC [3] [µg/mL]	MIC [4] [µg/mL]	MIC [5] [µg/mL]	MIC [6] [µg/mL]	MIC [7] [µg/mL]	MIC [8] [µg/mL]	MIC [9] [µg/mL]	MIC [10] [µg/mL]	MIC [11] [µg/mL]	MIC [12] [µg/mL]	MIC [13] [µg/mL]	IC50 [14] [µg/mL]	MIC [15] [µg/mL]	MIC [16] [µg/mL]	MIC [17] [µg/mL]	MIC [18] [µg/mL]	MIC [19] [µg/mL]	MIC [20] [µg/mL]	also measured
CC(C)(C)c1ccc(CC2(Cc3ccc(C(C)(C)C)cc3)C(=O)N(CCCCN)C(=O)N(CCCCN)C2=O)cc1.O=C(O)C(F)(F)F.O=C(O)C(F)(F)F	4	8	16	> 32	4	32	16	4	8	8	8	8	4	3	16	> 32	8	32	8	16	MIC [21]: 8 µg/mL; MIC [22]: 32 µg/mL; MIC [23]: 8 µg/mL; MIC [24]: 4 µg/mL; MIC [25]: > 32 µg/mL; IC50 [26]: 1 µg/mL; MIC [27]: > 32 µg/mL; MIC [28]: > 32 µg/mL; EC50 [29]: 145 µg/mL; MIC [30]: 8 µg/mL; MIC [31]: 16 µg/mL; MIC [32]: 8 µg/mL; MIC [33]: > 32 µg/mL; MIC [34]: 16 µg/mL; MIC [35]: 8 µg/mL; MIC [36]: 8 µg/mL; MIC [37]: 1 µg/mL
NCCCCN1C(=O)N(CCCCN)C(=O)C(Cc2cc(C(F)(F)F)cc(C(F)(F)F)c2)(Cc2cc(C(F)(F)F)cc(C(F)(F)F)c2)C1=O.O=C(O)C(F)(F)F.O=C(O)C(F)(F)F	8	16	32	32	16	32	32	16	16	16	8	16	16	9	32	32	16	32	16	16	MIC [21]: 16 µg/mL; MIC [22]: 32 µg/mL; MIC [23]: 16 µg/mL; MIC [24]: 8 µg/mL; MIC [25]: 32 µg/mL; IC50 [26]: 17 µg/mL; MIC [27]: 32 µg/mL; MIC [28]: 32 µg/mL; EC50 [29]: 177 µg/mL; MIC [30]: 16 µg/mL; MIC [31]: 32 µg/mL; MIC [32]: 16 µg/mL; MIC [33]: > 32 µg/mL; MIC [34]: 32 µg/mL; MIC [35]: 16 µg/mL; MIC [36]: 8 µg/mL; MIC [37]: 4 µg/mL
N=C(N)NCCCCN1C(=O)N(CCCCNC(=N)N)C(=O)C(Cc2ccc(F)c3ccccc23)(Cc2ccc(F)c3ccccc23)C1=O.O=C(O)C(F)(F)F.O=C(O)C(F)(F)F	4	8	8	16	4	4	8	1	8	4	4	2	1	56	8	16	2	8	4	8	MIC [21]: 4 µg/mL; MIC [22]: 4 µg/mL; MIC [23]: 4 µg/mL; MIC [24]: 4 µg/mL; MIC [25]: 16 µg/mL; IC50 [26]: 23 µg/mL; MIC [27]: 8 µg/mL; MIC [28]: 16 µg/mL; EC50 [29]: 90 µg/mL; MIC [30]: 2 µg/mL; MIC [31]: 16 µg/mL; MIC [32]: 2 µg/mL; MIC [33]: 8 µg/mL; MIC [34]: 8 µg/mL; MIC [35]: 2 µg/mL; MIC [36]: 4 µg/mL; MIC [37]: 0.25 µg/mL
